# Earlier results, collected in patent publication US20240226024A1 (Empros Pharma AB, priority 2021, published 2024).
# Assays:
# [1] = for Fraction of the dose absorbed: oral administration
# [2] = for Additional weight loss relative to placebo at one year: on average; for Placebo adjusted reduction of body weight: oral administration for 6 months
# [3] = not given; remark: listed apart in the source
smiles,measurement,setting,value
"OCCN1C[C@H](O)[C@@H](O)[C@H](O)[C@H]1CO [Miglitol, miglitol]",Fraction of the dose absorbed,[1],100%
C[C@H]1CNCCc2ccc(Cl)cc21 [lorcaserin],Decrease of body weight more than placebo,"[2]; human, in vivo",about 3.2 kg
same,"Decrease of body weight more than placebo, % of initial body weight","[2]; human, in vivo",about 3.2%
same,Additional weight loss relative to placebo at one year,[2],~3%
"CCCCCCCCCCC[C@@H](C[C@@H]1OC(=O)[C@H]1CCCCCC)OC(=O)[C@H](CC(C)C)NC=O [orlistat, (S)-((S)-1-((2S,3S)-3-Hexyl-4-oxooxetan-2-yl)tridecan-2-yl) 2-formamido-4-methylpentanoate]","Relative weight loss, best case scenario","[2]; conventional dosage form, placebo 6%",10%
same,"Approximate relative weight loss, conventional dosage form",[2]; conventional dosage forms,2-3%
same,Additional weight loss relative to placebo at one year,[2],~3%
same,Placebo adjusted reduction of body weight,[2],2-3%
same,Fraction of the dose absorbed,[1],< 3%
same,Plasma exposure,"[1]; oral, conventional dosage form",< 5 ng/mL
same,Solubility in water (in words),,practically insoluble in water
same,Water solubility,,less than 0.001 g/ml
same,log P,,8.5
same,"Participants who reported faecal incontinence, similar 6-month trial",[3]; 6-month trial,5%
same,Patients who complain about GI side-effects in clinical trials,"[3]; diarrhea, oily spotting and fecal urgency",≥ 25%
same,"Participants who reported faecal incontinence, trials of longer duration",[3]; trials of longer duration,approximately 18%
"C[C@H]1O[C@H](O[C@H]2[C@H](O)[C@@H](O)[C@@H](O[C@H]3[C@H](O)[C@@H](O)C(O)O[C@@H]3CO)O[C@@H]2CO)[C@H](O)[C@@H](O)[C@@H]1N[C@H]1C=C(CO)[C@@H](O)[C@H](O)[C@H]1O (stereo partly drawn) [acarbose, O-4,6-Dideoxy-4-[[(1S,4R,5S,6S)-4,5,6-trihydroxy-3-(hydroxymethyl)cyclohex-2-enyl]amino]-α-D-glucopyranosyl-(1→4)-O-α-D-gluco-pyranosyl-(1→4)-D-glucopyranose]",Placebo adjusted reduction of body weight,[2],approx. 0.5%
OCC(CO)N[C@H]1C[C@](O)(CO)[C@@H](O)[C@H](O)[C@H]1O [voglibose],Fraction of the dose absorbed,[1],only negligibly absorbed
